Measured values reported in patent US11970498B2, “CDK2 inhibitors” (BLUEPRINT MEDICINES CORPORATION, priority 2021, dated 2024).

Experiments:
CDK2/Cyclin E = CDK2/Cyclin E (Homo sapiens, UniProt P24941); test: CDK2/Cyclin E biochemical phosphorylation assay (Caliper mobility shift); conditions: apparent IC50; 1.0 mM ATP or ATP Km; 1.25 nM enzyme; 25° C.; read-out: CDK2/cyclin E1 IC50
Method in brief: (§1)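 Caliper electrophoretic separation of substrate and phosphopeptide gave apparent IC50s. Enzymes: CDK1/Cyclin B1 GST-tag 1.5 nM, CDK2/Cyclin E 1.25 nM; ATP 1.0 mM or at Km; 7.5 µM FL-peptide; pH 7.5 HEPES buffer, 1% DMSO; room temperature until 10–20% phosphorylated, then EDTA quench.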

CDK1/Cyclin B1, GST-tag = biological target: T1, CDK1/Cyclin B1, GST-tag (Homo sapiens, UniProt P06493); test: CDK1/Cyclin B1 biochemical phosphorylation assay (Caliper mobility shift); conditions: apparent IC50; 1.0 mM ATP or ATP Km; 1.5 nM enzyme; 25° C.
T1 construct: GST
T1 sequence (P06493 whole entry): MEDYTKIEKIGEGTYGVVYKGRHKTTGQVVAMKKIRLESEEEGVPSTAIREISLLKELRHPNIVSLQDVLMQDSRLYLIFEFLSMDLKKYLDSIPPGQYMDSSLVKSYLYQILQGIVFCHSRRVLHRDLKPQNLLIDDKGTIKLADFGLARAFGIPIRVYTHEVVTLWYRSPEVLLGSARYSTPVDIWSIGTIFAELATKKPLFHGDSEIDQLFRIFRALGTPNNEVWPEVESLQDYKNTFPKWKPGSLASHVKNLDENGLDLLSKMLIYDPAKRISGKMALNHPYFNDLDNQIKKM
T1 sequence (P14635 whole entry partner): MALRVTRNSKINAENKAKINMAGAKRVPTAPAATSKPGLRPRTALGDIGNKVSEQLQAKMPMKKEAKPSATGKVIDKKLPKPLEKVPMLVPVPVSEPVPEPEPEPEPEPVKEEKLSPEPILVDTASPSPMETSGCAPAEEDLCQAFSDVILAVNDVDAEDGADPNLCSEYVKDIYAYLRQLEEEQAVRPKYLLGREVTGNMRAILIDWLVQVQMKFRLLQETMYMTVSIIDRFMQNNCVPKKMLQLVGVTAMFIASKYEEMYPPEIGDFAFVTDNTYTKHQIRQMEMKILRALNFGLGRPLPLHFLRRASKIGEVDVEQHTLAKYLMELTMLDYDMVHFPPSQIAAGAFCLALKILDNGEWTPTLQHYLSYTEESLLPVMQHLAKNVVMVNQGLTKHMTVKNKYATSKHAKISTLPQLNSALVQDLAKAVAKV
Method in brief: as §1

| SMILES | IC50 (CDK2/Cyclin E) [nM] | IC50 (CDK1/Cyclin B1, GST-tag) [nM] |
| --- | --- | --- |
| OC[C@@H](C1CCOCC1)n1ncc2ncc(Nc3cc(OC(F)F)[nH]n3)nc21 [Example 30, (R)-2-(6-((5-(difluoromethoxy)-1H-pyrazol-3-yl)amino)-1H-pyrazolo[3,4-b]pyrazin-1-yl)-2-(tetrahydro-2H-pyran-4-yl)ethan-1-ol] | 20 to 30 | ≥ 500 |
| FC(F)Oc1cc(Nc2cnc3cnn(C[C@H]4COCCO4)c3n2)n[nH]1 [Example 86, (S)-1-((1,4-dioxan-2-yl)methyl)-N-(5-(difluoromethoxy)-1H-pyrazol-3-yl)-1H-pyrazolo[3,4-b]pyrazin-6-amine] | ≤ 10 | ≥ 500 |
| C[C@]1(Cn2ncc3ncc(Nc4cc(OC(F)F)[nH]n4)nc32)CCOC1 (single isomer, unassigned) [Example 166, (S)-N-(5-(difluoromethoxy)-1H-pyrazol-3-yl)-1-((3-methyltetrahydrofuran-3-yl)methyl)-1H-pyrazolo[3,4-b]pyrazin-6-amine or (R)-N-(5-(difluoromethoxy)-1H-pyrazol-3-yl)-1-((3-methyltetrahydrofuran-3-yl)methyl)-1H-pyrazolo[3,4-b]pyrazin-6-amine] | ≤ 10 | 100 to 500 |
| Fc1ccc(Cn2ncc3ncc(Nc4cc(OC(F)F)[nH]n4)nc32)cc1 [Example 40, N-(5-(difluoromethoxy)-1H-pyrazol-3-yl)-1-(4-fluorobenzyl)-1H-pyrazolo[3,4-b]pyrazin-6-amine] | 10 to 20 | ≥ 500 |
| FC(F)Oc1cc(Nc2cnc3cnn(Cc4cccnc4)c3n2)n[nH]1 [Example 35, N-(5-(difluoromethoxy)-1H-pyrazol-3-yl)-1-(pyridin-3-ylmethyl)-1H-pyrazolo[3,4-b]pyrazin-6-amine] | ≤ 10 | ≥ 500 |
| FC(F)Oc1cc(Nc2cnc3cnn(CC4CCC4)c3n2)n[nH]1 [Example 101, 1-(cyclobutylmethyl)-N-(5-(difluoromethoxy)-1H-pyrazol-3-yl)-1H-pyrazolo[3,4-b]pyrazin-6-amine] | ≤ 10 | 100 to 500 |
| COc1cc(Nc2cnc3cnn(C[C@H]4C[C@@H]4C#N)c3n2)n[nH]1 (single isomer, unassigned) [Example 197, (1R,2R)-2-((6-((5-methoxy-1H-pyrazol-3-yl)amino)-1H-pyrazolo[3,4-b]pyrazin-1-yl)methyl)cyclopropane-1-carbonitrile or (1S,2S)-2-((6-((5-methoxy-1H-pyrazol-3-yl)amino)-1H-pyrazolo[3,4-b]pyrazin-1-yl)methyl)cyclopropane-1-carbonitrile] | 20 to 30 | ≥ 500 |
| C[C@@H](O)c1nn(CC2CCOCC2)c2nc(Nc3cc(OC(F)F)[nH]n3)cnc12 (single isomer, unassigned) [Example 176, (S)-1-(6-((5-(difluoromethoxy)-1H-pyrazol-3-yl)amino)-1-((tetrahydro-2H-pyran-4-yl)methyl)-1H-pyrazolo[3,4-b]pyrazin-3-yl)ethan-1-ol or (R)-1-(6-((5-(difluoromethoxy)-1H-pyrazol-3-yl)amino)-1-((tetrahydro-2H-pyran-4-yl)methyl)-1H-pyrazolo[3,4-b]pyrazin-3-yl)ethan-1-ol] | ≤ 10 | 100 to 500 |
| COc1cc(Nc2cnc3cnn(Cc4cncs4)c3n2)n[nH]1 [Example 75, N-(5-methoxy-1H-pyrazol-3-yl)-1-(thiazol-5-ylmethyl)-1H-pyrazolo[3,4-b]pyrazin-6-amine] | 20 to 30 | ≥ 500 |
| FC(F)Oc1cc(Nc2cnc3cnn([C@H](c4ccccn4)C(F)F)c3n2)n[nH]1 (single isomer, unassigned) [Example 149, (R)-1-(2,2-difluoro-1-(pyridin-2-yl)ethyl)-N-(5-(difluoromethoxy)-1H-pyrazol-3-yl)-1H-pyrazolo[3,4-b]pyrazin-6-amine or (S)-1-(2,2-difluoro-1-(pyridin-2-yl)ethyl)-N-(5-(difluoromethoxy)-1H-pyrazol-3-yl)-1H-pyrazolo[3,4-b]pyrazin-6-amine] | 30 to 100 | ≥ 500 |
| C[C@@H]1C[C@H](Cn2ncc3ncc(Nc4cc(OC(F)F)[nH]n4)nc32)C[C@H](C)O1 [Example 65, N-(5-(difluoromethoxy)-1H-pyrazol-3-yl)-1-(((2R,4r,6S)-2,6-dimethyltetrahydro-2Hpyran-4-yl)methyl)-1Hpyrazolo[3,4-b]pyrazin-6-amine] | ≤ 10 | < 100 |
| FC(F)Oc1cc(Nc2cnc3cnn([C@H](c4ccccc4)C4COC4)c3n2)n[nH]1 (single isomer, unassigned) [Example 161, (S)-N-(5-(difluoromethoxy)-1H-pyrazol-3-yl)-1-(oxetan-3-yl(phenyl)methyl)-1H-pyrazolo[3,4-b]pyrazin-6-amine or (R)-N-(5-(difluoromethoxy)-1H-pyrazol-3-yl)-1-(oxetan-3-yl(phenyl)methyl)-1H-pyrazolo[3,4-b]pyrazin-6-amine] | 30 to 100 | ≥ 500 |
